# Literature values in patent US20080014156A1, “PHOTOPROTECTANT COMPOSITION FOR PREVENTING SUNBURN AND SUN DAMAGE TO THE SKIN” (priority 2006, published 2008).
# Conditions: relative to vitamin E
compound,measurement,value
CC1=C(/C=C/C(C)=C/C=C/C(C)=C/C=C/C=C(C)/C=C/C=C(C)/C=C/C2=C(C)C(=O)[C@@H](O)CC2(C)C)C(C)(C)C[C@H](O)C1=O [Astaxanthin],antioxidant effectiveness compared with vitamin E,up to 550 times
